According to paper PMC2801429 (Journal of Alzheimer's disease : JAD, 2009):
“Also recorded” adds a separate entry of the source. Marks after values point to notes of the source that are not given here.

Legend:
[1] = Plasma pharmacokinetics of GSPE phenolic constituents after intragastric gavage; assay type: in vivo, Sprague Dawley rats; details: for Increase of total (free plus methylated) C AUC0-8h: rats; for Detection in rat plasma: acute oral administration of GSPE; for AUC(0-8h) / Cmax / Tmax: rat plasma, mean ± SEM
[2] = Brain deposition of GSPE phenolic constituents; assay type: in vivo, Sprague Dawley rats; details: for Detection in brain tissue: rats; for Concentration in brain tissue: rats administered GSPE for 10 days (dose escalation, last dose 150 mg/kg BW), perfused brain, mean ± SEM
[3] = acute and single dose studies; cited from earlier work
[4] = humans; four week multiple dose administration; cited from earlier work
[5] = single intragastric gavage 50 mg GSE/kg BW
[6] = single intragastric gavage 100 mg GSE/kg BW
[7] = single intragastric gavage 150 mg GSE/kg BW
[8] = 10 day repeated GSPE pretreatment prior to pharmacokinetic dose
[9] = single acute GSPE dose (50, 100 or 150 mg/kg BW)

| Compound | Increase of total (free plus methylated) C AUC0-8h ([1]; 50 to 100 mg/kg BW dose) | Increase of total (free plus methylated) C AUC0-8h ([1]; 100 to 150 mg/kg BW dose) | Detection in rat plasma [1] | AUC(0-8h) [1, 5] | Cmax [1, 5] | Tmax [1, 5] | AUC(0-8h) [1, 6] | Cmax [1, 6] | Tmax [1, 6] | AUC(0-8h) [1, 7] | Cmax [1, 7] | Tmax [1, 7] | Detection in brain tissue [2, 8] | Concentration in brain tissue [2] | Detection in brain tissue [2, 9] | Bioavailability [3] | Improvement of bioavailability by multiple dosing [4] |
| --- | --- | --- | --- | --- | --- | --- | --- | --- | --- | --- | --- | --- | --- | --- | --- | --- | --- |
| Oc1cc(O)c2c(c1)OC(c1ccc(O)c(O)c1)C(O)C2 (single isomer, unassigned; (+)) [C, (+)-catechin] | 78% | 106% | detected | 398.5 ± 80.5 ^a ng/mL*h | 207.5 ± 34.8 ^a ng/mL | 1.7 ± 0.7 h | 606.1 ± 64.6 ^a ng/mL*h | 289.9 ± 37.2 ^a ng/mL | 1.8 ± 0.2 h | 1168.2 ± 143.6 ^b ng/mL*h | 442.4 ± 49.1 ^b ng/mL | 1.1 ± 0.2 h | detectable levels | 576.7 ± 227.7 pg/g | not detectable | < 2 % of oral dose | – |
| O=C(O[C@@H]1Cc2c(O)cc(O)cc2O[C@@H]1c1cc(O)c(O)c(O)c1)c1cc(O)c(O)c(O)c1 [EGCG, epigallocatechin-gallate] | – | – | – | – | – | – | – | – | – | – | – | – | – | – | – | – | > 60% |
| O=C(O)c1cc(O)c(O)c(O)c1 [GA, Gallic acid] | – | – | – | – | – | – | – | – | – | – | – | – | detectable levels; also recorded: trace levels | – | No detectable amounts | < 2 % of oral dose | – |

Further lines, with some results ahead:

| Increase of total (free plus methylated) C AUC0-8h ([1]; 50 to 100 mg/kg BW dose) | Increase of total (free plus methylated) C AUC0-8h ([1]; 100 to 150 mg/kg BW dose) | Detection in rat plasma [1] | AUC(0-8h) [1, 5] | Cmax [1, 5] | Tmax [1, 5] | AUC(0-8h) [1, 6] | Cmax [1, 6] | Tmax [1, 6] | AUC(0-8h) [1, 7] | Cmax [1, 7] | Tmax [1, 7] | Detection in brain tissue [2, 8] | Concentration in brain tissue [2] | Detection in brain tissue [2, 9] | Compound | Bioavailability [3] | Improvement of bioavailability by multiple dosing [4] |
| --- | --- | --- | --- | --- | --- | --- | --- | --- | --- | --- | --- | --- | --- | --- | --- | --- | --- |
| – | – | – | 44.1 ± 4.9 ^a ng/mL*h | 22.7 ± 3.5 ^a ng/mL | 1.0 ± 0.0 h | 184.8 ± 45.3 ^a ng/mL*h | 75.5 ± 14.0 ^b ng/mL | 1.4 ± 0.2 h | 465.1 ± 45.1 ^b ng/mL*h | 129.3 ± 13.2 ^c ng/mL | 1.3 ± 0.2 h | Trace but not quantifiable levels | – | – | COc1cc([C@H]2Oc3cc(O)cc(O)c3C[C@@H]2O)ccc1O [3′-OMeC, 3′-O-methylcatechin] | – | – |
| – | – | – | 60.5 ± 4.1 ^a ng/mL*h | 36.8 ± 5.8 ^a ng/mL | 1.0 ± 0.0 h | 266.6 ± 61.4 ^b ng/mL*h | 105.9 ± 22.0 ^a ng/mL | 1.5 ± 0.2 h | 639.5 ± 67.0 ^c ng/mL*h | 167.7 ± 19.6 ^a ng/mL | 1.3 ± 0.2 h | Trace but not quantifiable levels | – | – | COc1cc([C@H]2Oc3cc(O)cc(O)c3C[C@H]2O)ccc1O [3′-OMeEC, 3′-O-methylepicatechin] | – | – |
| – | – | detected | – | – | – | – | – | – | – | – | – | detectable levels | 290.7 ± 45.9 pg/g | not detectable | Oc1cc(O)c2c(c1)O[C@H](c1ccc(O)c(O)c1)[C@H](O)C2 [EC, (−)-epicatechin] | < 2 % of oral dose | – |
